Assay results reported in US20240376114A1, “NUCLEAR TRANSPORT MODULATORS AND USES THEREOF” (Karyopharm Therapeutics Inc., priority 2011, published 2024).

test: CellTiter 96 AQueous One Solution (MTS) cell proliferation assay; assay type: cell-based; conditions: human, MM.1S multiple myeloma cells; MM.1S cells, 72 h treatment; read-out: Cytotoxicity [EC50]
From the text: The CellTiter 96® AQueous One Solution cell proliferation assay (Promega) was used on MM.1S multiple myeloma cell line to study the cytotoxic and cytostatic properties of the compounds. The assay is based on the cleavage of the tetrazolium salt, MTS, in the presence of an electron-coupling reagent PES (phenazine ethosulfate). The MTS tetrazolium compound is bioreduced by cells into a colored formazan product that is soluble in tissue culture medium. This conversion is presumably accomplished by NADPH or NADH produced by dehydrogenase enzymes in metabolically active cells. Assays are performed by adding a small amount of the CellTiter 96® AQueous One solution reagent directly to culture wells, incubating for 1-4 hours and then recording the absorbance at 490 nm with a 96-well plate reader.
The cells were seeded at 5×10^3 to 1.5×10^4 cells (depending on cell type) in each well of a 96-well plate in 100 μL of fresh culture medium and adherent cells were allowed to attach overnight. The stock solutions of the compounds were diluted in cell culture medium to obtain eight concentrations of each drug, ranging from 1 nM to 30 μM and DMSO at less than 1% v/v was used as a negative control. The resulting drug solutions were transferred onto the cells. After 72 h of treatment, 20 μl of CellTiter 96® AQueous reagent was added into each well of the 96-well assay plates and the plate was incubated at 37° C. for 1-4 hours in a humidified, 5% CO2 atmosphere. Then the absorbance of each well was recorded at 490 nm using a 96-well plate reader. In most cases, the assay was performed in triplicate and the results were presented as half maximal inhibitory concentration (IC50). Optical density versus compound concentration was plotted and analyzed using non-linear regression equations (IDBS XLfit) and the IC50 for each compound was calculated.

| SMILES | EC50 at 72 h [nM] |
| --- | --- |
| O=C(/C=C\n1cnc(-c2cc(C(F)(F)F)cc(C(F)(F)F)c2)n1)N1CCC(O)CC1 [Compound 66, (Z)-3-(3-(3,5-bis(trifluoromethyl)phenyl)-1H-1,2,4-triazol-1-yl)-1-(4-hydroxypiperidin-1-yl)prop-2-en-1-one] | < 1000 |
| CN(C)CC1(F)CN(C(=O)/C=C\n2cnc(-c3cc(C(F)(F)F)cc(C(F)(F)F)c3)n2)C1 [Compound 63, (Z)-3-(3-(3,5-bis(trifluoromethyl)phenyl)-1H-1,2,4-triazol-1-yl)-1-(3-((dimethylamino)methyl)-3-fluoroazetidin-1-yl)prop-2-en-1-one] | < 1000 |
| O=C(/C=C\N1CCC(c2cc(C(F)(F)F)cc(C(F)(F)F)c2)C1)N1CC(F)(F)C1 (centres unmarked) [Compound 43, (Z)-3-(3-(3,5-bis(trifluoromethyl)phenyl)pyrrolidin-1-yl)-1-(3,3-difluoroazetidin-1-yl)prop-2-en-1-one] | > 10000 |
| O=C(/C=C\n1cnc(-c2cc(C(F)(F)F)cc(C(F)(F)F)c2)n1)NCc1cncnc1 [Compound 14, (Z)-3-(3-(3,5-bis(trifluoromethyl)phenyl)-1H-1,2,4-triazol-1-yl)-N-(pyrimidin-5-ylmethyl)acrylamide] | < 1000 |
| CN1CCC(CNC(=O)/C=C\n2cnc(-c3cc(C(F)(F)F)cc(C(F)(F)F)c3)n2)CC1 [Compound 26, (Z)-3-(3-(3,5-bis(trifluoromethyl)phenyl)-1H-1,2,4-triazol-1-yl)-N-((1-methylpiperidin-4-yl)methyl)acrylamide] | < 1000 |
| CN1CCC(CNC(=O)/C=C\n2cnc(-c3cc(C(F)(F)F)cc(C(F)(F)F)c3)n2)C1 (centres unmarked) [Compound 30, (Z)-3-(3-(3,5-bis(trifluoromethyl)phenyl)-1H-1,2,4-triazol-1-yl)-N-((1-methylpyrrolidin-3-yl)methyl)acrylamide] | < 1000 |
| O=C(/C=C\n1cnc(-c2cc(O)cc(C(F)(F)F)c2)n1)N1CC(F)(F)C1 [Example 3, (Z)-1-(3,3-difluoroazetidin-1-yl)-3-(3-(3-hydroxy-5-(trifluoromethyl)phenyl)-1H-1,2,4-triazol-1-yl)prop-2-en-1-one] | < 1000 |
| O=C(/C=C\n1cnc(-c2cc(C(F)(F)F)cc(C(F)(F)F)c2)n1)N1CCC(F)(F)C1 [Compound 20, (Z)-3-(3-(3,5-bis(trifluoromethyl)phenyl)-1H-1,2,4-triazol-1-yl)-1-(3,3-difluoropyrrolidin-1-yl)prop-2-en-1-one] | < 1000 |
| O=C(/C=C\n1cnc(-c2cc(C(F)(F)F)cc(C(F)(F)F)c2)n1)N1CCC2(CNC2)C1 [Compound 58, (Z)-3-(3-(3,5-bis(trifluoromethyl)phenyl)-1H-1,2,4-triazol-1-yl)-1-(2,6-diazaspiro[3.4]octan-6-yl)prop-2-en-1-one 2,2,2-trifluoroacetate] | < 1000 |
| O=C(/C=C\n1cnc(-c2cc(C(F)(F)F)cc(C(F)(F)F)c2)n1)NC1CCc2ncccc21 (centres unmarked) [Compound 28, (Z)-3-(3-(3,5-bis(trifluoromethyl)phenyl)-1H-1,2,4-triazol-1-yl)-N-(6,7-dihydro-5H-cyclopenta[b]pyridin-5-yl)acrylamide] | 1000 to 10000 |
| O=C(/C=C\n1cnc(-c2cc(C(F)(F)F)cc(C(F)(F)F)c2)n1)N1CCC(F)(F)CC1 [Example 6, (Z)-3-(3-(3,5-bis(trifluoromethyl)phenyl)-1H-1,2,4-triazol-1-yl)-1-(4,4-difluoropiperidin-1-yl)prop-2-en-1-one] | 1000 to 10000 |
| CC(NC(=O)/C=C\n1cnc(-c2cc(C(F)(F)F)cc(C(F)(F)F)c2)n1)c1cnccn1 (centres unmarked) [Compound 29, (Z)-3-(3-(3,5-bis(trifluoromethyl)phenyl)-1H-1,2,4-triazol-1-yl)-N-(1-(pyrazin-2-yl)ethyl)acrylamide] | 1000 to 10000 |
| O=C(/C=C\n1cnc(-c2cc(C(F)(F)F)cc(C(F)(F)F)c2)c1)N1CC(F)(F)C1 [Compound 16, (Z)-3-(4-(3,5-bis(trifluoromethyl)phenyl)-1H-imidazol-1-yl)-1-(3,3-difluoroazetidin-1-yl)prop-2-en-1-one] | < 1000 |
| O=C(/C=C\n1cnc(-c2cc(C(F)(F)F)cc(C(F)(F)F)c2)n1)NCC1CCCNC1 (centres unmarked) [Compound 19, (Z)-3-(3-(3,5-bis(trifluoromethyl)phenyl)-1H-1,2,4-triazol-1-yl)-N-(piperidin-3-ylmethyl)acrylamide] | 1000 to 10000 |
| [2H]/C(=C/n1nc(-c2cc(C(F)(F)F)cc(C(F)(F)F)c2)nc1[2H])C(=O)N1CC(F)(F)C1 [Compound 40, D2-(Z)-3-(3-(3,5-bis(trifluoromethyl)phenyl)-1H-1,2,4-triazol-1-yl)-1-(3,3-difluoroazetidin-1-yl)prop-2-en-1-one] | < 1000 |
| O=C(/C=C\n1cnc(-c2cc(C(F)(F)F)cc(C(F)(F)F)c2)n1)N1CC2(CNC2)C1 [Compound 52, (Z)-3-(3-(3,5-bis(trifluoromethyl)phenyl)-1H-1,2,4-triazol-1-yl)-1-(2,6-diazaspiro[3.3]heptan-2-yl)prop-2-en-1-one 2,2,2-trifluoroacetate] | < 1000 |
| O=C(/C=C\n1cnc(-c2cc(C(F)(F)F)nc(C(F)(F)F)c2)n1)N1CC(F)(F)C1 [Example 9, (Z)-3-(3-(2,6-bis(trifluoromethyl)pyridin-4-yl)-1H-1,2,4-triazol-1-yl)-1-(3,3-difluoroazetidin-1-yl)prop-2-en-1-one] | < 1000 |
| O=C(/C=C\n1ccc(-c2cc(C(F)(F)F)cc(C(F)(F)F)c2)n1)N1CC(F)(F)C1 [Compound 35, (Z)-3-(3-(3,5-bis(trifluoromethyl)phenyl)-1H-pyrazol-1-yl)-1-(3,3-difluoroazetidin-1-yl)prop-2-en-1-one] | < 1000 |
| O=C(/C=C\n1cnc(-c2cc(C(F)(F)F)cc(C(F)(F)F)c2)n1)N1CC(c2ccccn2)C1 [Compound 24, (Z)-3-(3-(3,5-bis(trifluoromethyl)phenyl)-1H-1,2,4-triazol-1-yl)-1-(3-(pyridin-2-yl)azetidin-1-yl)prop-2-en-1-one] | < 1000 |
| CN1CCCC(CNC(=O)/C=C\n2cnc(-c3cc(C(F)(F)F)cc(C(F)(F)F)c3)n2)C1 (centres unmarked) [Compound 27, (Z)-3-(3-(3,5-bis(trifluoromethyl)phenyl)-1H-1,2,4-triazol-1-yl)-N-((1-methylpiperidin-3-yl)methyl)acrylamide] | < 1000 |
| COC(=O)C1(F)CN(C(=O)/C=C\n2cnc(-c3cc(C(F)(F)F)cc(C(F)(F)F)c3)n2)C1 [Compound 61, (Z)-methyl 1-(3-(3-(3,5-bis(trifluoromethyl)phenyl)-1H-1,2,4-triazol-1-yl)acryloyl)-3-fluoroazetidine-3-carboxylate] | < 1000 |
| Cc1ncc(CNC(=O)/C=C\n2cnc(-c3cc(C(F)(F)F)cc(C(F)(F)F)c3)n2)c(C)n1 [Compound 31, (Z)-3-(3-(3,5-bis(trifluoromethyl)phenyl)-1H-1,2,4-triazol-1-yl)-N-((2,4-dimethylpyrimidin-5-yl)methyl)acrylamide] | < 1000 |
| O=C(/C=C\n1cnc(-c2cc(C(F)(F)F)c(Cl)c(C(F)(F)F)c2)n1)N1CC(F)(F)C1 [Compound 59, (Z)-3-(3-(4-chloro-3,5-bis(trifluoromethyl)phenyl)-1H-1,2,4-triazol-1-yl)-1-(3,3-difluoroazetidin-1-yl)prop-2-en-1-one] | < 1000 |
